According to US7563862B2, “Neural regeneration peptides and methods for their use in treatment of brain damage” (Neuren Pharmaceuticals Limited, priority 2001, dated 2009):
Ends that are not written are not given here.

Tests used:
cerebellar microexplants = assay: cerebellar microexplant proliferation assay under injury (BrdU-positive nuclei); assay type: cell-based, rat
Procedure: Using the toxins described above, cerebellar explants were exposed for 24 hours, at the beginning of culturing to dilutions of NRP and 0.1 μM BrdU. Subsequently, 80% of the medium was changed without addition of new toxins and NRPs. The cerebellar cultures were fixed as described above after 3 days in vitro. The detection of the incorporated BrdU level was performed as described previously. Under these conditions, over 99% of the cells in the cerebellar population were neurons. Therefore any increase in cell number after NRP administration was most likely due to neuronal cell proliferation.
For statistical analysis of proliferation four fields (each field having an area of 0.65 mm^2) of each fixed cerebellar culture displaying highest density of BrdU-positive nuclei were chosen, and BrdU-positive nuclei were counted. Statistical significance was measured by Student's t-test.
Laminated cerebellar cortex was extracted from P3/4, P7/8 rat pups and triturated through gauze having a 125 μm pore size to obtain uniformly sized microexplants. After centrifugation for 3 minutes at 61 g and the pellet was resuspended in StartV medium (Biochrom) and the suspension seeded on poly-D-lysine coated coverslips in 6-well plates and incubated for 3 hrs to allow adherence, before 1 ml StartV per well was added. As described previously, glutamate/3-NP and NRP were also added. The explants are cultivated at 34° C. at 5% CO2 and 100% humidity for 48-72 hrs. BrdU was administered at start of cultivation for proliferation rate measurements and cells are counted per microscopic field after 48-72 hrs.

wild-type PC-12 cells = assay: haptotactic migration assay, PC-12 cells; assay type: cell-based; conditions: 1 ng/ml coating followed by matrigel/PDL, 100,000 cells
Procedure: NRPs were tested for migration-inducing/chemoattractive activity on mouse neural stem cells, EGF-dependent immortalized mouse neural stem cell line MEB5 and wild-type PC-12 cells in a haptotactic migration assay as described below.
Initial NRP Coating. Control wells of Transwell plates (Coming) with 12 μm pore size were coated in 1.5 ml of the BSA/PBS vehicle. Remaining plates were coated using various concentrations of NRPs ranging between 1-100 ng/ml (prepared in PBS containing 10 ug/ml BSA). The plates were then incubated at 37° C. for 1 hr to coat. Wells were then rinsed 2× with 1 ml sterile PBS.
Laminin ([…]) for MEB-5 cells, PDL (50 μg/ml)+Matrigel for mouse primary stem cells and fibronectin (25 ug/ml)+matrigel for PC-12 cells were used as extracellular matrix (ECM) coating for the cells. All ECM compounds were diluted in PBS. 1.5 ml of the ECM per well was incubated for 2 hrs at room temperature. The wells were then rinsed once with Iml serum-free media (e.g. NB/B27) followed by 1 ml PBS wash.
A 5 ug/mL PDL/PLL mixture (in PBS) was used to coat inserts. Subsequently the inserts were rinsed with MilliQ water. […]

[1] = test system: human olfactory ensheating glial (OEG) cells; assay: proliferation of olfactory ensheating glial (OEG) cells; assay type: cell-based; conditions: over 72 hours
Procedure: To determine whether NRPs might be useful for remyelinating neural tissues, we carried out studies using human olfactory ensheating glial (OEG) cells. OEG cells are being evaluated as a source population of cells for repopulating damaged neural tissue, such as that of the spinal cord. OEG cells were obtained from scrapings of human nasal mucosa using methods that are known in the art. Cells were grown in medium under control conditions and in the presence of NRP-7 SW (SEQ ID NO:24).

[2] = test system: mouse forebrain neural stem cells; assay: neurosphere expansion assay, shift from symmetric to asymmetric division of neural stem cells; assay type: cell-based; conditions: nanomolar concentrations
Source text: To determine whether NRPs could induce a shift of cells within neurospheres from symmetric (two stem cells, both stem cells) to asymmetric division of neural stem cells (1 stem cell, 1 neuronal progenitor or neuroblast cell), as has been described for erythropoietin (EPO) by Shingo et al. (2001), neurospheres were dissociated by trituration and seeded for expansion at a density of 200,000 cells/well in 6 well plates in NSA medium with EGF only, EGF plus varying concentrations of an NRP, or EGF plus 10 U/ml EPO. One half of the medium with fresh NRP compound was exchanged every other day. After 7 days the cells from the neurospheres were plated. In the presence of EGF, cells retain symmetric cell division. With the removal of EGF, cells begin to differentiate (asymmetric cell division). Subsequently, the cells were subjected to a differentiation assay as described below, with the exception that bFGF was not added to the plating medium for the initial 24 h and differentiation for 7 days was allowed in control medium without NRPs or other compounds. In cells that had never been exposed to an NRP, the numbers of neuroblast cells were lower than in cells that had been exposed to an NRP or EPO. Therefore, NRPs can increase the differentiation of undifferentiated stem cells into neuroblast cells.

Row | Substance | up regulation of the proliferation rate observed for injured cerebellar microexplants (cerebellar microexplants; 0.1 pM) [%] | up regulation of the proliferation rate observed for injured cerebellar microexplants (cerebellar microexplants; 100 pM) [%] | enhancement of the proliferation rate (cerebellar microexplants; neurons injured using 3-NP/glutamate) | more PC-12 cells migrated compared with BSA vehicle (wild-type PC-12 cells) [%] | rate of growth of OEG cells [1] | production of neuronal progenitors [2]
1 | SEPEARRAPGRKGGVVCASLAADW-NH2 [NRP-7 segment SW, 24-mer form of mouse NRP-7] | 252.6 | 123.7 | more than 200% | 333 | about 50% | –
2 | KDPEARRAPGSLHPCLAAS-NH2 [NRP-2 segment KS, 19-mer fragment of NRP-2] | – | – | – | – | – | promoted the production of neuronal progenitors at the expense of multipotent stem cells
